From PubChem BioAssay (NCI)
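Interpolation was linear, between the two tested concentrations surrounding the appropriate level; five concentrations were tested over 48 hours in 96-well plates. At the GI50, growth is halved. TGI: total growth inhibition.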

What was measured:
Assay in all cases: NCI-60 cell line screen, 48 h
[1] = test system: DU-145 prostate
[2] = test system: 786-0 renal
[3] = test system: A549 NSCLC
[4] = test system: BT-549 breast
[5] = test system: HT29 colon
[6] = test system: HOP-62 NSCLC
[7] = test system: HCC-2998 colon
[8] = test system: SK-OV-3 ovarian
[9] = test system: HCT-116 colon
[10] = test system: HOP-92 NSCLC

Row | SMILES | GI50 [1] [µM] | TGI [1] [µM] | GI50 [2] [µM] | TGI [2] [µM] | GI50 [3] [µM] | TGI [3] [µM] | GI50 [4] [µM] | TGI [4] [µM] | GI50 [5] [µM] | TGI [5] [µM] | GI50 [6] [µM] | TGI [6] [µM] | GI50 [7] [µM] | TGI [7] [µM] | GI50 [8] [µM] | TGI [8] [µM] | GI50 [9] [µM] | TGI [9] [µM] | GI50 [10] [µM] | TGI [10] [µM]
1 | Nc1cccc2c1C(=O)N(C1CCC(=O)NC1=O)C2=O (stereo not given) | > 100 | > 100 | > 100 | > 100 | > 100 | > 100 | > 100 | > 100 | > 100 | > 100 | > 100 | > 100 | > 100 | > 100 | > 100 | > 100 | > 100 | > 100 | > 100 | > 100
2 | CCCCCCCCCCCCc1ccc(C(=O)/C=C/C(=O)O)cc1 | 8.15 | 20.9 | 2.03 | 4.05 | 13.8 | 30.7 | 1.91 | 5.33 | 1.81 | 4 | 14 | 29.9 | 5.45 | 17.7 | 16.2 | 30.4 | 1.54 | 3.39 | 1.95 | 5.78
3 | Cc1cc2c(C)c3cc(C)c(N)cc3nc2cc1N | 0.749 | 5.3 | 0.929 | 8.84 | 0.636 | 3.16 | 3.12 | 11.6 | 0.373 | 2.09 | 1.11 | 7.08 | 1.12 | 4.91 | 0.963 | 8.39 | 0.383 | 6.14 | 1.54 | 5.13
4 | COc1cc2c(cc1OC)C(=O)C(Br)CC2 (stereo not given) | 4.61 | 16.2 | 4.01 | 13.4 | 11.4 | 27.7 | 2.15 | 5.85 | 3.72 | 12.1 | 6.09 | 18.5 | 11.5 | 24.5 | 4.55 | 13.7 | 1.74 | 3.72 | 2.63 | 12.2
5 | O=C1c2ccccc2-c2c1c1ccccc1c(=O)n2CCO | – | > 100 | – | > 100 | – | > 100 | – | > 100 | – | > 100 | – | 32.5 | – | > 100 | – | > 100 | – | > 79.3 | – | > 71.6
6 | COc1cc(C(=O)O)c([N+](=O)[O-])c(OC)c1OC | – | > 100 | – | > 100 | – | > 100 | – | > 100 | – | > 100 | – | > 100 | – | > 100 | – | > 100 | – | > 100 | – | > 100
7 | C1=CN2C[n+]3cccc(OCc4ccccc4)c3N=C2C(OCc2ccccc2)=C1 | – | > 100 | – | > 100 | – | > 100 | – | 3.25 | – | 47.1 | – | > 100 | – | 23.2 | – | > 100 | – | > 100 | – | 81.4
